Laboratory results reported in US20040043403A1, “Process for determining the biological activity of epidermal growth factor receptor tyrosine kinase inhibitors” (priority 2000, published 2004).

Tested on: A431 cells
Test: UniGEM 1 cDNA array expression profile of A431 cells
Format: cell-based, human
Conditions: 24 hours
Description: The following tissue culture cells are chosen because of their EGFR expression status (Table 1). EGFR expression is measured by Western blotting, using anti-EGFR monoclonal antibodies from Transduction Labs (Lexington, Ky.). The cell lines are obtained from the ATCC (Rockville, […].). The cells are cultured in 5% CO2 at 37° C.
20 million tissue culture cells (about 80% confluent) or 200 million WBCs are incubated for 2 or 24 h in culture medium containing 3 μM of an EGFR tyrosine kinase inhibitor or 0.03% DMSO. Total RNA from cell pellet is isolated using the RNeasy kit (Qiagen). mRNA is isolated using the oligotex mRNA purification kit (Qiagen). The quality of the obtained mRNA is tested by real time RT-PCR using beta-Actin primers (PE Applied Biosystems) with an amplicon size of 300 base pairs (bp). The total RNA is used as a reference to calculate the amount of mRNA-enrichment in the oligotex purified samples.
Probes for the UniGEM hybridization are synthesized by Incyte Genomics (Palo Alto, Calif., USA). For each probe 200 ng mRNA (50 ng/μl) is shipped in dry ice. The results are analyzed using the Expressionist Software Package provided by GeneData.
Expression profiles (UniGEM V arrays) of 4 tumor cell lines with different EGFR expression status (A431, NCI-H596, NCI-H520 and MDA-MB-468) and of WBCs upon exposure of cells to 3 μM of COMPOUND A for 2 or 24 h are analyzed. As control, cells treated with DMSO for the same time period are used. […] The cDNA array hybridization is repeated with the UniGEM 1 array using the same mRNA (Table 3).

C[C@@H](Nc1ncnc2[nH]c(-c3ccc(O)cc3)cc12)c1ccccc1 [COMPOUND A, (R)-6-(4-hydroxy-phenyl)-4-[(1-phenyl-ethyl)-amino]-7H-pyrrolo[2,3-d]pyrimidine]
Gene induction, Micro Array UniGEM 1: Acute phase serum amyloid A protein (3 μM, RNA from Experiment 1): 4.4
Gene induction, Micro Array UniGEM 1: Cathepsin H (3 μM, RNA from Experiment 1): 2.2
Gene induction, Micro Array UniGEM 1: Caveolin (3 μM, RNA from Experiment 1): 3.4
Gene induction, Micro Array UniGEM 1: Complement component 3 (C3) (3 μM, RNA from Experiment 1): 3.1
Gene induction, Micro Array UniGEM 1: Complement cytolysis inibitor (Clusterin) (3 μM, RNA from Experiment 1): 2.7
Gene induction, Micro Array UniGEM 1: DNA binding protein inhibitor ID-3 (3 μM, RNA from Experiment 1): 2.1
Gene induction, Micro Array UniGEM 1: Extracellular protein S1-5 (3 μM, RNA from Experiment 1): 3.3
Gene induction, Micro Array UniGEM 1: TGF-beta induced gene (3 μM, RNA from Experiment 1): 2.1
Gene induction, Micro Array UniGEM 1: TRAIL (3 μM, RNA from Experiment 1): 3.0
Gene induction, Micro Array UniGEM 1: VAC-beta (annexin VIII) (3 μM, RNA from Experiment 1): 3.0
Differential Expression (Balanced): Human D-type cyclin (CCND2) mRNA {IM359412} (GB Acc. No. AA010487, 3 μM, versus DMSO treated cells, negative numbers: repressed genes): −8.2
Differential Expression (Balanced): ESTs {IM365120} (GB Acc. No. AA025124, 3 μM, versus DMSO treated cells): 2.7
Differential Expression (Balanced): Human HE4 mRNA for extracellular protease {IM366323} (GB Acc. No. AA025750, 3 μM, versus DMSO treated cells): 2.6
Differential Expression (Balanced): Human mRNA for precursor of epidermal growth factor receptor {IM469272} (GB Acc. No. AA026089, 3 μM, versus DMSO treated cells): 2.8
Differential Expression (Balanced): Human cyclin-dependent protein kinase mRNA {IM366824} (GB Acc. No. AA029438, 3 μM, versus DMSO treated cells): 2.8
Differential Expression (Balanced): Human extracellular protein (S1-5) mRNA {IM470007} (GB Acc. No. AA030000, 3 μM, versus DMSO treated cells): 3.3
Differential Expression (Balanced): ESTs {IM471869} (GB Acc. No. AA035156, 3 μM, versus DMSO treated cells): 3.0
Differential Expression (Balanced): Human nucleotide-binding protein mRNA; c {IM376052} (GB Acc. No. AA039353, 3 μM, versus DMSO treated cells, negative numbers: repressed genes): −3.5
Differential Expression (Balanced): ESTs {IM485336} contains Alu repetitive elements (GB Acc. No. AA039628, 3 μM, versus DMSO treated cells, negative numbers: repressed genes): −6.8
Differential Expression (Balanced): Human 5′-AMP-activated protein kinase; g {IM376178} (GB Acc. No. AA040600, 3 μM, versus DMSO treated cells, negative numbers: repressed genes): −4.1
Differential Expression (Balanced): Human mRNA for pancreatic carcinoma marker {IM376296} (Trop-2) (GB Acc. No. AA041250, 3 μM, versus DMSO treated cells): 3.0
Differential Expression (Balanced): Human complement component 3 (C3) gene {IM485717} (GB Acc. No. AA041549, 3 μM, versus DMSO treated cells): 3.1
Differential Expression (Balanced): Human annexin VIII mRNA; complete cds. {IM376634} (VAC-beta) (GB Acc. No. AA046102, 3 μM, versus DMSO treated cells): 3.0
Differential Expression (Balanced): Human mRNA for caveolin {IM488533} (GB Acc. No. AA047243, 3 μM, versus DMSO treated cells): 3.4
Differential Expression (Balanced): Fibronectin {IM512287} (GB Acc. No. AA057694, 3 μM, versus DMSO treated cells, negative numbers: repressed genes): −8.8
Differential Expression (Balanced): ESTs {IM377004} (GB Acc. No. AA057780, 3 μM, versus DMSO treated cells): 2.7
Differential Expression (Balanced): TransformIng growth factor-beta induced gene product (BIGH3) (GB Acc. No. AA057802, 3 μM, versus DMSO treated cells): 2.1
Differential Expression (Balanced): Human mRNA for cathepsin H (E.C.3.4.22.1) {IM489348} (GB Acc. No. AA058337, 3 μM, versus DMSO treated cells): 2.2
Differential Expression (Balanced): Human fibronectin gene extra type III re {IM151144} (GB Acc. No. H03907, 3 μM, versus DMSO treated cells, negative numbers: repressed genes): −6.9
Differential Expression (Balanced): ESTs {IM46265} (GB Acc. No. H09077, 3 μM, versus DMSO treated cells, negative numbers: repressed genes): −21.9
Differential Expression (Balanced): Human ribosomal protein L5 pseudogene mRNA {IM50482} (GB Acc. No. H17614, 3 μM, versus DMSO treated cells, negative numbers: repressed genes): −3.6
Differential Expression (Balanced): ESTs {IM172005} (GB Acc. No. H18621, 3 μM, versus DMSO treated cells, negative numbers: repressed genes): −3.1
Differential Expression (Balanced): Human acute phase serum amyloid A protein {IM161456} (GB Acc. No. H25546, 3 μM, versus DMSO treated cells): 4.4
Differential Expression (Balanced): Human TNF-related apoptosis inducing ligand TRAIL {IM203132} (GB Acc. No. H54629, 3 μM, versus DMSO treated cells): 4.0
Differential Expression (Balanced): Human complement cytolysis inhibitor (CLI) mRNA; complete cds (Clusterin) (GB Acc. No. M25915, 3 μM, versus DMSO treated cells): 2.7
Differential Expression (Balanced): ESTs {248032} (GB Acc. No. N53767, 3 μM, versus DMSO treated cells): 2.6
Differential Expression (Balanced): Rat N-syndecan mRNA {IM26677} (GB Acc. No. R13994, 3 μM, versus DMSO treated cells): 2.9
Differential Expression (Balanced): Human fibronectin (fn) 3′ coding region {IM136798} (GB Acc. No. R36450, 3 μM, versus DMSO treated cells, negative numbers: repressed genes): −4.7
